One block for each molecule: values may come before it.
Columns and labels:
[1] = Stability in human small intestine homogenate assessed as hydrolysis rate after 30 mins at 96 uM; assay type: ADME, tissue-based; conditions: read-out: Activity
[2] = Stability in CD1 mouse small intestine homogenate assessed as hydrolysis rate minute at 96 uM; assay type: ADME, tissue-based; conditions: tissue homogenate
[3] = Stability in human Caco-2 cell homogenate assessed as half life; assay type: ADME, Colon
[4] = Stability in CD1 mouse small intestine homogenate assessed as hydrolysis rate after 30 mins at 96 uM; assay type: ADME, tissue-based; conditions: read-out: Activity
[5] = Stability in human small intestine homogenate assessed as hydrolysis rate at 96 uM; assay type: ADME, tissue-based; conditions: tissue homogenate
[6] = test system: Blood; test: Drug level in CD1 mouse portal blood assessed as gemcitabine level at 14.3 mg/kg, po after 5 mins; assay type: ADME, organism-based; design: dose 14.3 mg/kg, route oral; conditions: in vivo
[7] = test system: HCT-116; test: Antitumor activity in human HCT116 cells xenografted CD1 mouse assessed as maximum tumor reduction at 160 mg/kg, ip administered as total 4 doses for every 3 days measured after 6 weeks; assay type: functional; design: scale not given: the % may be the effect or the level left; conditions: route intraperitoneal
[8] = Chemical stability in buffer solution assessed as hydrolysis at pH 8 after 4 hrs at 40 degC; assay type: physicochemical; conditions: read-out: solubility
[9] = AUC in po dosed CD1 mouse; assay type: ADME, organism-based; conditions: plasma
[10] = Chemical stability in buffer solution assessed as hydrolysis at pH 1 after 4 hrs at 40 degC; assay type: physicochemical; conditions: read-out: solubility
[11] = Solubility in buffer solution at pH 6 after 4 hrs at 40 degC; assay type: physicochemical; conditions: pH 6, 4 h
[12] = Tmax in po dosed CD1 mouse; assay type: ADME, organism-based; conditions: in vivo
[13] = test system: HCT-116; test: Antitumor activity in human HCT116 cells xenografted CD1 mouse assessed as maximum tumor reduction at 3.77 mg/kg, po administered daily for 14 days measured after 6 weeks; assay type: functional; design: scale not given: the % may be the effect or the level left
[14] = Cmax in po dosed CD1 mouse; assay type: ADME, organism-based; design: route oral; conditions: in vivo
[15] = Chemical stability in buffer solution assessed as hydrolysis at pH 4 after 4 hrs at 40 degC; assay type: physicochemical; conditions: read-out: solubility
[16] = Solubility in buffer solution at pH 1 after 4 hrs at 40 degC; assay type: physicochemical; conditions: pH 1, 4 h
[17] = Stability in human liver S9 fraction assessed as hydrolysis rate at 100 uM; assay type: ADME, subcellular; conditions: s9, 100 µM
[18] = test system: Mus musculus; test: Gemcitabine AUC in CD1 mouse at 14.3 mg/kg, po; assay type: ADME, organism-based; design: dose 14.3 mg/kg, route oral; conditions: in vivo
[19] = Chemical stability in buffer solution assessed as hydrolysis at pH 2 after 4 hrs at 40 degC; assay type: physicochemical; conditions: read-out: solubility
[20] = Solubility in buffer solution at pH 4 after 4 hrs at 40 degC; assay type: physicochemical; conditions: pH 4, 4 h
[21] = Chemical stability in buffer solution assessed as hydrolysis at pH 6 after 4 hrs at 40 degC; assay type: physicochemical; conditions: read-out: solubility
[22] = Solubility in buffer solution at pH 8 after 4 hrs at 40 degC; assay type: physicochemical; conditions: pH 8, 4 h
[23] = test system: Mus musculus; test: Gemcitabine Cmax in CD1 mouse at 14.3 mg/kg, po; assay type: ADME, organism-based; design: dose 14.3 mg/kg, route oral; conditions: in vivo
[24] = Solubility in buffer solution at pH 2 after 4 hrs at 40 degC; assay type: physicochemical; conditions: pH 2, 4 h
[25] = Drug level in CD1 mouse portal blood at 14.3 mg/kg, po after 5 mins; assay type: ADME, organism-based; design: dose 14.3 mg/kg, route oral; conditions: read-out: Drug uptake
[26] = test system: HCT-116; test: Antitumor activity in human HCT116 cells xenografted CD1 mouse assessed as maximum tumor reduction at 7.55 mg/kg, po administered daily for 14 days measured after 6 weeks; assay type: functional; design: scale not given: the % may be the effect or the level left
[27] = Stability in CD1 mouse liver S9 fraction assessed as hydrolysis rate at 100 uM; assay type: ADME, subcellular; conditions: s9, 100 µM

metabolised at 0.5 h, 96 µM [1]: 100% | Activity [2]: 2.3 nmol/mg/min | half-life [3]: 75 min | metabolised at 0.5 h, 96 µM [4]: 100% | Activity [5]: 3.7 nmol/mg/min
SMILES: CC[C@H](C)[C@H](N)C(=O)OC[C@H]1O[C@@H](n2ccc(N)nc2=O)C(F)(F)[C@@H]1O

Drug uptake [6]: 99 ng/mL
SMILES: Cl.Nc1ccn([C@@H]2O[C@H](CO)[C@@H](O)C2(F)F)c(=O)n1 [GEMCITABINE HYDROCHLORIDE]
Activity [7]: 71.5%

degraded at 4 h [8]: 0% | AUC [9]: 536 ng·h/mL | degraded at 4 h [10]: 21% | solubility [11]: > 2% | Tmax [12]: 30 min | Cmax [14]: 535 ng/mL | metabolised at 0.5 h, 96 µM [1]: 1% | Activity [2]: < 0.01 nmol/mg/min | metabolised at 0.5 h, 96 µM [4]: 1% | degraded at 4 h [15]: 2% | solubility [16]: 1.12% | Activity [17]: 27 pmol/min/mg | AUC [18]: 778 ng·h/mL | degraded at 4 h [19]: 12% | solubility [20]: > 2% | degraded at 4 h [21]: 0% | Activity [22]: > 2% | Activity [5]: < 0.01 nmol/mg/min | Cmax [23]: 373 ng/mL | solubility [24]: 1.79% | concentration at 5 min [25]: 653 ng/mL | Activity [27]: 11 pmol/mg/min
SMILES: CCCC(CCC)C(=O)Nc1ccn([C@@H]2O[C@H](CO)[C@@H](O)C2(F)F)c(=O)n1 [LY-2334737]
Activity [13]: 56.3% | Activity [26]: 67.1%
